The record followed here is publication PMC9287337 (Scientific Reports, 2022).

Where two headings read alike, the source gives them in different places. Where only a bound is given, the exact number is not on record here.

Common to all, as to assay type: cell-based, mouse
For data set [1], the system named is type I BMP receptor-dependent p-Smad. Kind of data set: Western blot of p-Smad in presence or absence of Dorsomorphin. Conditions: 1 µM, 30 min; for p-Smad level, DM(+): Dorsomorphin 10 µM pretreatment 1 h; for p-Smad level, DM(−): without Dorsomorphin. As for the experimental part:
Total whole cell lysates were prepared and used for Western blot analysis of Smad phosphorylation using anti-p-Smad antibodies.
(§1) C2C12 cells (3 mL) were seeded into 35 mm dishes at 7.5 × 10^4 cells/mL in complete growth medium, incubated to reach 80% confluence and serum-starved for 16–18 h. […] Thereafter, the cultures were washed with ice-cold 1X TBS for 2 min. Lysis Buffer (Cell Signaling Technology, Danvers, MA, USA) supplemented with 1 mM PMSF (phenylmethylsulphonyl fluoride) was added to the cultures and whole cell lysates were prepared.
(§2) Laemmli sample buffer (4X) was added to the whole cell lysates (20 µg) to a final concentration of 1X and heated at 100 °C for 5 min. The samples were immediately cooled on ice for 5 min and centrifuged at 9500 rpm for 2 min at RT. The samples and the Precision Plus Protein Standard (5 µL; Bio-Rad, Hercules, CA, USA) were loaded on 12% SDS polyacrylamide gels. Protein was separated using the Bio-Rad Mini Protean II Gel Electrophoresis System at 135 V. Meanwhile, 0.2 µm nitrocellulose membranes were pre-incubated in cold 1X Transfer Buffer (10 mM Tris/2.5 mM glycine/20% methanol) for at least 30 min. Next, the separated proteins were transferred at 100 V onto the pre-equilibrated nitrocellulose membranes for 1 h in Transfer Buffer, followed by blocking in 5% BSA/0.1% Tween 20/1X TBS for 30 min. The membranes were incubated overnight at 4 °C with the desired primary rabbit monoclonal antibody (p-Smad1/5(S463/465)/9(S465/467), Smad1 (D5907) XP®, p-Akt (Ser473) (D9E) XP®, or Akt (pan) (C67E7), p-SAPK/JNK (Thr183/Tyr185), SAPK/JNK, β-actin (Cell Signaling Technologies, Danvers, MA, USA)) or rabbit polyclonal antibody (phospho-PI3 Kinase p85 (Tyr458)/p55 (Tyr199) antibody (Cell Signaling Technologies, Danvers, MA, USA), p-p38 MAPK, p38 MAPK, p-ERK1, ERK1/2) (Abclonal, Woburn, MA, USA)) in Antibody Dilution Buffer (1% BSA/0.1% Tween 20/1X TBS) and then washed with 1X TBST (0.1% Tween 20/1X TBS) three times for 15 min. HRP-conjugated Goat Anti-Rabbit IgG secondary antibody (Santa Cruz Biotechnology, Inc., Dallas, TX, USA) in Antibody Dilution Buffer was added to the membranes for 1 h at RT followed by three 15-min washes with 1X TBST. Finally, the blots were developed using SuperSignal ™ West Femto HRP Substrate solutions (Thermo Scientific, Rockford, IL, USA) and analysed using the Omega Lum™ G Imaging System (San Francisco, CA, USA). Quantification of chemiluminescent signals was carried out using ImageJ (Image Processing and Analysis in Java 1.8.0_112).
On the technique in general: In western blotting, separated proteins are transferred to a membrane and probed.

The test system of data set [2] is PI3K enzyme. Kind of data set: PI3K ELISA on PI3K immunoprecipitated from treated cells. Particulars: 10 µM, 15 min; for Amount of PIP3 produced by PI3K enzyme: control 0.61 pmol. As for the experimental part: PI3K enzyme was immunoprecipitated and processed in a PI3K ELISA (Fig. 7B). […] The enzyme activity is expressed as the amount of product (PIP3) generated in each sample by the PI3K enzyme per minute of reaction.
C2C12 cells were seeded in 35-mm dishes at 7 × 10^4 cells/mL and incubated at 37 °C in 5% CO2 to reach 80% confluency. […] Cells (~ 10^6) per treatment were collected to prepare whole cell lysates followed by exposure to three freeze/thaw cycles in liquid nitrogen. The samples were centrifuged and PI3K enzyme was immunoprecipitated with a mouse monoclonal anti-PI3K p55 γ antibody ((E-9), Santa Cruz Biotechnology, Dallas, TX, USA) for 1 h at 4 °C with gentle rocking and the immune complexes were collected overnight on a rocking platform at 4 °C with Dynabeads™ Protein A (Life Technologies, Carlsbad, CA, USA). The next day, the immunoprecipitated PI3K enzyme was collected by centrifugation processed for a PI3K ELISA (Echelon Biosciences, Salt Lake, City, UT, USA) according to the manufacturer’s instructions. Standard solutions of PIP3 (0, 0.22, 0.67, 2, 6, 18, and 54 pmol) were added to kinase reactions using recombinant PI3K enzyme (Echelon Biosciences, Salt Lake, City, UT, USA) and used to generate a standard curve for production of PIP3. The optical density of the PIP3 standards and the reactions containing immunoprecipitated PI3K from treated samples was measured at 450 nm.
(In general: In an ELISA, binding on a coated surface is turned into a signal by an enzyme label.)

Data set [3] relates to p-PI3K (PI3K phosphorylation). Kind of data set: Western blot of p-PI3K normalized to β-actin. Conditions: 15 min; for activity at 0.01 µM / activity at 0.1 µM / activity at 1 µM / activity at 10 µM: Mus musculus, 0.25 h, read-out: p-PI3K level, percent of control; for Increase in level of PI3K phosphorylation: all concentrations tested 0.01–10 µM. As for the experimental part: To directly assess the activation of the PI3K enzyme, Western blot analysis was carried out on C2C12 cell whole cell lysates after a 15-min stimulation with 0.01–10 µM SY-LB-35 or SY-LB-57.
as §1, §2

The nature of data set [4]: RealTime-Glo MT cell viability assay. Particulars: mouse, serum-starved C2C12 cells, 24 h, serum-starved C2C12, read-out: Cell viability, percent of luminescence in control untreated cells. The procedure:
(§3) To first determine how these novel compounds effect the health of C2C12 cells and to establish the range of subtoxic concentrations for future studies, cell viability assays were carried out. Serum-starved C2C12 cells were exposed to increasing concentrations (0.01–1000 µM) of SY-LB-35 and SY-LB-57 for 24 h. Exposure to Triton X-100 (125 µM) is toxic to cells and was used as a negative control for cell viability. Following the 24-h exposure period, the MT Cell viability substrate was added to the cultures. Only viable cells can reduce the substrate and, thereby, generate a luminescent signal. Any decrease in luminescence was considered an indication of cell death or toxicity.
(§4) C2C12 cells (100 µL) were seeded in a 96-well plate at 5 × 10^5 cells/mL and incubated overnight in complete growth media to achieve 80% confluency followed by serum-starvation for 16–18 h.
(§5) Next, reagents from the RealTime-Glo™ MT Cell Viability Assay Kit (Promega, Madison, WI, USA) were diluted in SS medium and used according to manufacturer’s protocol. Cellular luminescence was measured using the FilterMax F5 Multi-mode Microplate Reader (Molecular Devices, San Jose, CA, USA). Data from three independent experiments with individual experiments carried out in triplicate was determined and reported as a percentage of control.

Data set [5] has as its system C2C12 cells. Kind of data set: RealTime-Glo MT cell viability assay. Particulars: for Increase in cell viability over control / Decrease in cell viability compared with control: 24 h; for IC50: non-linear regression, read-out: IC50 (concentration at which cell viability is reduced by 50%). The procedure:
as §3, §4, §5

One may read the viability as a read-out of living cells in per cent, often relative to untreated cells. As to `Oc1ccc2[nH]c(-c3nc4ccccc4[nH]3)cc2c1` [SY-LB-35], in data set [1], the “p-Smad level, DM(+)” value was determined as 112% and the “p-Smad level, DM(−)” value is on record as 315%. Besides, in data set [2], the “PIP3 produced, higher compared to control untreated cells” value was determined as 26% and the “Amount of PIP3 produced by PI3K enzyme” value turned out to be 0.77 pmol. In data set [3], the activity at 0.01 µM was 431%, the activity at 0.1 µM was 434%, the activity at 1 µM is 492% and the activity at 10 µM is 484%. Besides, the “Increase in level of PI3K phosphorylation” value in data set [3] is over 300 % increase. For the same compound, in data set [4], the viability at 24 h, 0.01 µM came to 241%; the viability at 24 h, 0.1 µM stood at 244%; the viability at 24 h, 1 µM was 218%; the viability at 24 h, 10 µM came out at 137%. For the same compound, in data set [4], the viability at 24 h, 100 µM worked out at 69% and the viability at 24 h, 1 mM was determined as 13%. The “Increase in cell viability over control” value in data set [5] (0.01 µM) came to 150 % over control. In addition, in data set [5] (0.1 µM), the “Increase in cell viability over control” value turned out to be 150 % over control. Moreover, the “Increase in cell viability over control” value in data set [5] (1 µM) came out at 120 % over control. Further, in data set [5] (100 µM), the “Decrease in cell viability compared with control” value is reported as 30 % decrease. In addition, the “Decrease in cell viability compared with control” value in data set [5] (1 mM) is given as 80 % decrease. Besides, the IC50 in data set [5] (C2C12, 24 h) came out at 401 µM. Also, the IC50 in data set [5] (Mus musculus, C2C12, 24 h) came to 401 µM.
Consider `COc1ccc2[nH]c(-c3nc4ccccc4[nH]3)cc2c1` [SY-LB-57], for which, in data set [1], the “p-Smad level, DM(+)” value came to 111% and the “p-Smad level, DM(−)” value was found to be 172%. For the same compound, in data set [2], the “PIP3 produced, higher compared to control untreated cells” value was 26% and the “Amount of PIP3 produced by PI3K enzyme” value turned out to be 0.77 pmol. In addition, in data set [3], the activity at 0.01 µM turned out to be 443%, the activity at 0.1 µM worked out at 404%, the activity at 1 µM was determined as 471% and the activity at 10 µM worked out at 451%. Moreover, the “Increase in level of PI3K phosphorylation” value in data set [3] is over 300 % increase. Also, in data set [4], the viability at 24 h, 0.01 µM worked out at 390%; the viability at 24 h, 0.1 µM is 394%; the viability at 24 h, 1 µM amounted to 301%; the viability at 24 h, 10 µM came to 251%. In addition, in data set [4], the viability at 24 h, 100 µM came to 151% and the viability at 24 h, 1 mM came out at 20%. Also, in data set [5] (C2C12, 24 h), the “Non-toxic / safe concentrations” value is given as at most 10 µM and the IC50 was 808 µM. Moreover, the IC50 in data set [5] (Mus musculus, C2C12, 24 h) is 808 µM.
